Measurements taken from the NIST ThermoML archive (doi:10.1016/j.fluid.2015.05.032).
Numbers after ± are expanded uncertainties.

What was measured:
[1] = Liquid; for mass density: 298.15 K, 101.33 kPa, Vibrating tube method; for Normal boiling temperature: Ebulliometric method (Recirculating still)
[2] = refractive index (Na D-line) (dimensionless); conditions: 293.15 K; 101.33 kPa; Liquid; Standard Abbe refractometry

| mass density [1] | Normal boiling temperature [1] | refractive index [2] | Structure (SMILES) |
| --- | --- | --- | --- |
| 866.4 ± 0.3 kg/m3 | 111.93 ± 0.2 °C | 1.3886 ± 0.0004 | CCC(C)OC(C)=O (configuration not stated) [1-methylpropyl ethanoate] |
| 1043.5 ± 0.3 kg/m3 | 117.93 ± 0.2 °C | 1.3718 ± 0.0004 | CC(=O)O [acetic acid] |
| 927.5 ± 0.3 kg/m3 | 56.7 ± 0.2 °C | 1.3614 ± 0.0004 | COC(C)=O [methyl ethanoate] |

| Structure (SMILES) | mass density [1] | Normal boiling temperature [1] | refractive index [2] |
| --- | --- | --- | --- |
| Cc1ccc(C)cc1 [1,4-dimethylbenzene] | 856.5 ± 0.3 kg/m3 | 138.47 ± 0.2 °C | 1.4952 ± 0.0004 |
